Read-outs that look alike come from different tables or passages of the source.
Tests used:
[1] = tested on: larvae of the green rice cicada (Nephotettix cincticeps); assay: whole plant or invertebrate; assay type: in vivo; settings: 144 h, read-out: destruction of cicadas
Protocol: (§1) Solvent: 7 parts by weight of dimethylformamide
(§2) Emulsifier: 1 part by weight of alkylaryl polyglycol ether
(§3) To produce a suitable preparation of active compound, 1 part by weight of active compound is mixed with the stated amount of solvent and the stated amount of emulsifier, and the concentrate is diluted with water to the desired concentration.
Rice seedlings (Oryza satira) are treated by being dipped into the preparation of active compound of the desired concentration and are infested with larvae of the green rice cicada (Nephotettix cincticeps) while the seedlings are still moist.
After the specified period of time, the destruction in % is determined. 100% means that all the cicadas have been killed; 0% means that none of the cicadas have been killed.

[2] = tested on: common spider mite or greenhouse red spider mite (Tetranychus urticae); assay: Tetranychus test (OP resistant); assay type: in vivo; settings: 168 h, read-out: destruction of spider mites
Protocol: Tetranychus test (OP resistant)
as §1, §2, §3
Bean plants (Phaseolus vulgaris) which are heavily infested with all development stages of the common spider mite or greenhouse red spider mite (Tetranychus urticae) are treated by being dipped into the preparation of active compound of the desired concentration.
After the specified period of time, the destruction in % is determined. 100% means that all the spider mites have been killed; 0% means that none of the spider mites have been killed.

Trichinella spiralis = Trichinella spiralis in vitro; settings: 120 h, 5 days at 19° C., read-out: destruction (very good action)
Protocol: Trichinella spiralis in vitro
Trichina larvae are isolated from the muscles of mice and washed with 0.9% NaCl supplemented with 20 μg/ml sisomycin and 2 μg/ml of clotrimazole. The actual incubation for approximately 20 trichinas per measurement was effected in 2 ml of a solution consisting of 10 g Bacto Casitone, 5 g of yeast (yeast extract), 2.5 g of glucose, 0.4 g of KH2 PO4, 0.4 g of K2 HPO4 per 500 ml, pH 7.2, containing 10 μg/ml of sisomycin and […] of clotrimazole. 10 mg of the substance to be tested are dissolved in 0.5 ml of DMSO, and such an amount is added to the incubation medium that the end concentrations are 100, 10 and 1 μg/ml. After incubation for 5 days at 19° C., the test is evaluated. The following key is used for the evaluation: 0=no action, the number of live larvae and worms is lower than in the case of the control; 2=good action, dead trichinas can be found; 3=very good action, all trichinas are dead.

Digitaria = assay: Pre-emergence test, Digitaria; assay type: in vivo; settings: 504 h, after three weeks, 0%=no action, 100%=total destruction, read-out: % Activity (damage to the plants)
Protocol: (§4) Solvent: 5 parts by weight of acetone
as §2
(§5) To produce a suitable preparation of active compound, 1 part by weight of active compound is mixed with the stated amount of solvent, the stated amount of emulsifier is added and the concentrate is diluted with water to the desired concentration.
(§6) Seeds of the test plants are sown in normal soil and, after 24 hours, watered with the preparation of the active compound. It is expedient to keep constant the amount of water per unit area. The concentration of the active compound in the preparation is of no importance, only the amount of active compound applied per unit area being decisive. After three weeks, the degree of damage to the plants is rated in % damage in comparison to the development of the untreated control. The figures denote:
(§7) 0%=no action (like untreated control)
(§8) In this test, the following results were obtained at an exemplary application rate of 500 g/ha, the active compounds being tolerated well to very well by soya beans: […]

Echinochloa = assay: Pre-emergence test, Echinochloa; assay type: in vivo; settings: 504 h, after three weeks, 0%=no action, 100%=total destruction, read-out: % Activity (damage to the plants)
Protocol: as §4, §2, §5, §6, §7, §8

Panicum = assay: Pre-emergence test, Panicum; assay type: in vivo; settings: 504 h, after three weeks, 0%=no action, 100%=total destruction, read-out: % Activity (damage to the plants)
Protocol: as §4, §2, §5, §6, §7, §8

Setaria = assay: Pre-emergence test, Setaria; assay type: in vivo; settings: 504 h, after three weeks, 0%=no action, 100%=total destruction, read-out: % Activity (damage to the plants)
Protocol: as §4, §2, §5, §6, §7, §8

[3] = tested on: black bean aphid (Aphis fabae); assay: whole plant or invertebrate; assay type: in vivo; settings: active compound concentration 0.1%, bean plants watered, systemic action, read-out: destruction of aphids
Protocol: Aphis test (systemic action)
as §1, §2, §3
Bean plants (Vicia faba) which are heavily infested with the black bean aphid (Aphis fabae) are each watered with 20 ml of the preparation of the active compound of the desired concentration in such a way that the preparation of active compound penetrates the soil without wetting the shoot. The active compound is taken up by the roots and translocated to the shoot.
After the specified period of time, the destruction in % is determined. 100% means that all the aphids have been killed; 0% means that none of the aphids have been killed.

[4] = tested on: Lucilia cuprina resistant larvae; assay: Test with Lucilia cuprina resistant larvae; assay type: in vivo; settings: after 24 hours, read-out: degree of destruction
Protocol: Test with Lucilia cuprina resistant larvae
Emulsifier: 35 parts by weight of ethylene glycolmonomethyl ether 35 parts by weight of nonylphenol polyglycol ether
To produce a suitable preparation of active compound, three parts by weight of active compound are mixed with seven parts by weight of the abovementioned mixture and the concentrate thus obtained is diluted with water to the particular desired concentration.
About 20 Lucilia cuprina res. larvae are introduced into a test tube which contains approx. 1 cm^3 of horse meat and 0.5 ml of the preparation of active compound. After 24 hours, the degree of destruction is determined.

[5] = tested on: mustard beetle larvae (Phaedon cochleariae); assay: Phaedon larvae test; assay type: in vivo; settings: 168 h, after 7 days, active compound concentration 0.1%, cabbage leaves dipped, read-out: destruction of beetle larvae
Protocol: as §1, §2, §3
After the specified periods of time, the destruction in % is determined. 100% means that all the beetle larvae have been killed; 0% means that none of the beetle larvae have been killed.

[6] = tested on: caterpillars of the diamond-back moth (Plutella maculipennis); assay: whole plant or invertebrate; assay type: in vivo; settings: in Brassica oleracea, 168 h, read-out: destruction of caterpillars
Protocol: as §1, §2, §3
Cabbage leaves (Brassica oleracea) are treated by being dipped into the preparation of active compound of the desired concentration and are infested with caterpillars of the diamond-back moth (Plutella maculipennis) while the leaves are still moist.
After the specified periods of time, the destruction in % is determined. 100% means that all the caterpillars have been killed; 0% means that none of the caterpillars have been killed.

[7] = after 7 days, active compound concentration 0.01%, OP resistant, bean plants dipped

SMILES | mortality at 0.1 % [1] | activity at 500 g/ha (Digitaria) | activity at 500 g/ha (Echinochloa) | activity at 500 g/ha (Panicum) | activity at 500 g/ha (Setaria) | also measured
CCOC(=O)Oc1cc(C(C)(C)C)oc(=O)c1-c1c(C)cc(C)cc1C [Example 3, 4-ethoxycarbonyloxy-6-tert.-butyl-3-(2,4,6-trimethylphenyl)pyrone] | 100% | – | – | – | – | mortality at 0.01 % [2]: 100%
Cc1cc(C)c(-c2c(O)c(C#N)c(-c3ccccc3Cl)oc2=O)c(C)c1 [Example 13] | – | – | – | – | – | killing at 100 ppm (Trichinella spiralis): 100%
CCOC(=O)c1c(-c2ccccc2F)oc(=O)c(-c2c(C)cc(C)cc2C)c1O [Example 14] | – | – | – | – | – | killing at 100 ppm (Trichinella spiralis): 100%
CCOC(=O)c1c(-c2ccc([N+](=O)[O-])cc2)oc(=O)c(-c2c(C)cc(C)cc2C)c1O [Example 15] | – | – | – | – | – | killing at 100 ppm (Trichinella spiralis): 100%
Cc1cc(C)c(-c2c(O)c(C(=O)N3CCOCC3)c(C)oc2=O)c(C)c1 [Example 18] | – | – | – | – | – | killing at 100 ppm (Trichinella spiralis): 100%
Cc1cc(C)c(-c2c(O)c(C(=O)c3ccccc3)c(C)oc2=O)c(C)c1 [Example 26] | – | – | – | – | – | killing at 100 ppm (Trichinella spiralis): 100%
Cc1cc(C)c(-c2c(O)cc(C(C)(C)C)oc2=O)c(C)c1 [Example 31] | 100% | 90 to 100% | 70 to 100% | 95 to 100% | 70 to 100% | mortality at 0.01 % [2, 7]: 100%
Cc1cc(C)c(-c2c(O)c(C)c(C)oc2=O)c(C)c1 [Example 32] | 100% | 90 to 100% | 70 to 100% | 95 to 100% | 70 to 100% | mortality at 0.1 % [3]: 100%; mortality at 1000 ppm [4]: 100%
Cc1cc(C)c(-c2c(O)c(C(C)C)c(C)oc2=O)c(C)c1 [Example 33] | – | 90 to 100% | 70 to 100% | 95 to 100% | 70 to 100% | –
Cc1cc(C)c(-c2c(O)cc(C)oc2=O)c(C)c1 [Example 34] | 100% | 90 to 100% | 70 to 100% | 95 to 100% | 70 to 100% | –
CCc1c(C)oc(=O)c(-c2c(C)cc(C)cc2C)c1O [Example 35] | 100% | 90 to 100% | – | 95 to 100% | 70 to 100% | –
CCCc1c(CC)oc(=O)c(-c2c(C)cc(C)cc2C)c1O [Example 37] | 100% | – | 70 to 100% | 95 to 100% | 70 to 100% | killing at 100 ppm (Trichinella spiralis): 100%
Cc1cc(C)c(-c2c(O)cc(-c3ccccc3)oc2=O)c(C)c1 [Example 46] | – | 90 to 100% | 70 to 100% | 95 to 100% | – | mortality at 0.1 % [5]: 100%; mortality at 0.1 % [6]: 100%; mortality at 1000 ppm [4]: 100%
Cc1cc(C)c(-c2c(O)cc(-c3ccccc3Cl)oc2=O)c(C)c1 [Example 47] | – | – | – | – | – | mortality at 0.1 % [5]: 100%
Cc1cc(C)c(-c2c(O)cc(-c3ccccc3F)oc2=O)c(C)c1 [Example 51] | 100% | – | – | – | – | –
Cc1cc(C)c(-c2c(O)cc(-c3ccc(F)cc3)oc2=O)c(C)c1 [Example 52] | 100% | 90 to 100% | 70 to 100% | 95 to 100% | 70 to 100% | mortality at 0.1 % [6]: 100%

SMILES | mortality at 0.1 % [1] | activity at 500 g/ha (Digitaria) | activity at 500 g/ha (Echinochloa) | activity at 500 g/ha (Panicum) | activity at 500 g/ha (Setaria) | also measured
Cc1cc(C)c(-c2c(O)cc(-c3ccc(Cl)cc3)oc2=O)c(C)c1 [Example 53] | – | 90 to 100% | 70 to 100% | 95 to 100% | 70 to 100% | mortality at 0.1 % [6]: 100%
Cc1cc(C)c(-c2c(O)cc(-c3ccco3)oc2=O)c(C)c1 [Example 56] | 100% | – | 70 to 100% | 95 to 100% | 70 to 100% | killing at 100 ppm (Trichinella spiralis): 100%
Cc1cc(C)c(-c2c(O)cc(-c3cccs3)oc2=O)c(C)c1 [Example 58] | 100% | – | – | – | – | –
Cc1cc(C)c(-c2c(O)cc(-c3cc(Cl)c(Cl)s3)oc2=O)c(C)c1 [Example 60] | – | 90 to 100% | – | 95 to 100% | 70 to 100% | –
Cc1cc(C)c(-c2c(O)cc(-c3ccc(Cl)s3)oc2=O)c(C)c1 [Example 61] | – | – | – | – | – | mortality at 0.1 % [6]: 100%
Cc1cc(C)c(-c2c(O)cc(-c3cc(C)sc3C)oc2=O)c(C)c1 [Example 62] | 100% | 90 to 100% | – | 95 to 100% | – | –
Cc1cc(C)c(-c2c(O)cc(-c3cccnc3)oc2=O)c(C)c1 [Example 63] | – | 90 to 100% | 70 to 100% | 95 to 100% | 70 to 100% | –
Cc1cc(C)c(-c2c(O)cc(-c3c(C)cc(C)nc3C)oc2=O)c(C)c1 [Example 65] | 100% | – | – | – | – | mortality at 0.1 % [5]: 100%
Cc1cc(C)c(-c2c(O)c3c(oc2=O)CCCC3)c(C)c1 [Example 68] | 100% | 90 to 100% | 70 to 100% | 95 to 100% | 70 to 100% | –
Cc1cc(C)c(-c2c(O)c3c(oc2=O)CCC3)c(C)c1 [Example 69] | 100% | 90 to 100% | 70 to 100% | 95 to 100% | 70 to 100% | –
Cc1cc(C)c(-c2c(O)c3c(oc2=O)CCOC3)c(C)c1 [Example 71] | 100% | – | – | – | – | –
CC(=O)Oc1c(C)c(C)oc(=O)c1-c1c(C)cc(C)cc1C [Example 81] | – | 90 to 100% | 70 to 100% | 95 to 100% | 70 to 100% | mortality at 0.1 % [6]: 100%
CC(=O)Oc1cc(C(C)(C)C)oc(=O)c1-c1c(C)cc(C)cc1C [Example 84] | 100% | 90 to 100% | 70 to 100% | 95 to 100% | 70 to 100% | mortality at 0.01 % [2, 7]: 100%
Cc1cc(C)c(-c2c(OC(=O)C(C)C)cc(C(C)(C)C)oc2=O)c(C)c1 [Example 85] | 100% | – | – | – | – | mortality at 0.01 % [2, 7]: 100%
CCOC(=O)Oc1c(C)c(C)oc(=O)c1-c1c(C)cc(C)cc1C [Example 88] | – | 90 to 100% | – | 95 to 100% | 70 to 100% | mortality at 0.1 % [6]: 100%; mortality at 0.01 % [2, 7]: 100%

Source: patent publication US5393729A, “3-aryl-pyrone derivatives” (Bayer Aktiengesellschaft, priority 1992, dated 1995)
